# Target: T1, human S1P1 receptor (Homo sapiens, UniProt P21453)
# T1 construct: expressed in transfected cells; membrane preparation
# Test: GTP γ35S binding assay for S1P1 activity
# Type: biochemical
# Conditions: membranes of cells stably expressing the S1P1 receptor, test compounds 0.08 to 5,000 nM
# Procedure: Compounds were synthesized and tested for S1P1 activity using the GTP γ^35S binding assay. These compounds may be assessed for their ability to activate or block activation of the human S1P1 receptor in cells stably expressing the S1P1 receptor.
# GTP γ^35S binding was measured in the medium containing (mM) HEPES 25, pH 7.4, MgCl2 10, NaCl 100, dithiothreitol 0.5, digitonin 0.003%, 0.2 nM GTP γ^35S, and 5 μg membrane protein in a volume of 150 μl. Test compounds were included in the concentration range from 0.08 to 5,000 nM unless indicated otherwise. Membranes were incubated with 100 μM 5′-adenylylimidodiphosphate for 30 min, and subsequently with 10 μM GDP for 10 min on ice. Drug solutions and membrane were mixed, and then reactions were initiated by adding GTP γ^35S and continued for 30 min at 25° C. Reaction mixtures were filtered over Whatman GF/B filters under vacuum, and washed three times with 3 mL of ice-cold buffer (HEPES 25, pH7.4, MgCl2 10 and NaCl 100). Filters were dried and mixed with scintillant, and counted for ^35S activity using a β-counter. Agonist-induced GTP γ^35S binding was obtained by subtracting that in the absence of agonist. Binding data were analyzed using a non-linear regression method. In case of antagonist assay, the reaction mixture contained 10 nM […] in the presence of test antagonist at concentrations ranging from 0.08 to 5000 nM.
# T1 sequence (P21453 whole entry): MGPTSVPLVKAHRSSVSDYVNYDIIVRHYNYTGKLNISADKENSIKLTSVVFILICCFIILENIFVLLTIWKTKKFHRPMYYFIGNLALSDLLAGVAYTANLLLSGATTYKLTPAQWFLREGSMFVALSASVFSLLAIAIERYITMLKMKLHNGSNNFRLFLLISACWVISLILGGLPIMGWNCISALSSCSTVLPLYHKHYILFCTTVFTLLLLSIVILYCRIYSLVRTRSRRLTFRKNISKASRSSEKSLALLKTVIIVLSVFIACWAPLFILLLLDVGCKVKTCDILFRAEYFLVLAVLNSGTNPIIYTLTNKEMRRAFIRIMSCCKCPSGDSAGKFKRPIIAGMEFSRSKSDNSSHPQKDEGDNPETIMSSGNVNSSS
row,EC50 [nM],SMILES
1,3.09,"Cc1ccc(CC(CCCc2ccc(CNCCCP(=O)(O)O)cc2)c2cccc(Cl)c2)cc1C (stereo not drawn) [[3-({4-[4-(3-Chlorophenyl)-5-(3,4-dimethylphenyl)pentyl]benzyl}amino)propyl]phosphonic acid]"
2,3.72,"Cc1ccc(CC(CCCCc2ccc(CNCCCP(=O)(O)O)cc2)c2cccc(Cl)c2)cc1C (stereo not drawn) [[3-({4-[5-(3-Chlorophenyl)-6-(3,4-dimethylphenyl)hexyl]benzyl}amino)propyl]phosphonic acid]"
3,20.1,"Cc1ccc(CC(CCCCc2ccc(CNCCC(=O)O)cc2)c2cccc(Cl)c2)cc1C (stereo not drawn) [3-({4-[5-(3-Chlorophenyl)-6-(3,4-dimethylphenyl)hexyl]benzyl}amino)propanoic acid]"
4,5.09,"Cc1ccc(CC(CCCCc2ccc(CNCCCP(=O)(O)O)cc2)c2cc(F)cc(F)c2)cc1C (stereo not drawn) [[3-({4-[5-(3,5-Difluorophenyl)-6-(3,4-dimethylphenyl)hexyl]benzyl}amino)propyl]phosphonic acid]"
5,142,"Cc1ccc(CC(CCCc2ccc(CNCCC(=O)O)cc2)c2cccc(Cl)c2)cc1C (stereo not drawn) [3-({4-[4-(3-Chlorophenyl)-5-(3,4-dimethylphenyl)pentyl]benzyl}amino)propanoic acid]"
6,6.79,"Cc1ccc(CC(CCCCc2ccc(CNCCC(=O)O)cc2)c2cc(F)cc(F)c2)cc1C (stereo not drawn) [3-({4-[5-(3,5-Difluorophenyl)-6-(3,4)-dimethylphenyl)hexyl]benzyl}amino)propanoic acid]"

# Source: patent publication US20150057253A1, “ALKYL DERIVATIVES AS SPHINGOSINE-1 PHOSPHATE RECEPTORS MODULATORS” (Allergan, Inc., priority 2013, published 2015)
